One experiment has as its system K103N HIV-1. Put plainly: HIV-1 drug susceptibility assay, K103N virus. The format is cell-based. The protocol: (§1) The genes for K103N, E138D/K101R and K101R/K103N/E138D RT were cloned into HIV-1LAI ([11]). NNRTI susceptibility was determined in TZM-bl cells as described previously ([21]).
In a further experiment the test system is K101R/E138D/K103N HIV-1. Description: HIV-1 drug susceptibility assay, K101R/E138D/K103N virus. The format is cell-based. The conditions noted are these: for EC50: Human immunodeficiency virus 1, head: P4/R5 cells, footnote: TZM-bl cells, mean ± SD, read-out: EC50, inhibition of HIV-1 replication. The protocol:
as §1

A further experiment deals with WT HIV-1. Description: HIV-1 drug susceptibility assay (inhibition of HIV-1 replication), WT virus. The format is cell-based. The conditions noted are these: Human immunodeficiency virus 1, head: P4/R5 cells, footnote: TZM-bl cells, mean ± SD, at least three experiments. As for the experimental part: as §1
The next experiment concerns K101R/E138D HIV-1. Put plainly: HIV-1 drug susceptibility assay, K101R/E138D virus. The format is cell-based. The settings on record: for EC50: Human immunodeficiency virus 1, head: P4/R5 cells, footnote: TZM-bl cells, mean ± SD, read-out: EC50, inhibition of HIV-1 replication. As for the experimental part:
as §1

Experiment [1] concerns the target T1, K103N RT–T/P complex (Human immunodeficiency virus type 1 group M subtype B, UniProt P04585, K690N).
T1 construct: asymmetric heterodimer composed of a 66-kDa (p66) subunit and a p66-derived 51-kDa (p51) subunit; made in house
The format is binding, HIV-1. The conditions noted are these: K103N vs WT RT–T/P complex. As for the experimental part: (§2) Fluorescence anisotropy experiments were performed as previously described ([17],[18]). Assays were carried out using a fluorescein-labeled T/P substrate. The concentration of T/P in all experiments was 5 nM (in a 400-μl cuvette). Data were analyzed as described in the Supplementary Materials and Methods section.
(§3) -ddC-3’) was annealed to a 5’-biotinylated 35 nucleotide DNA […]
(§4) template (5’-biotin-[…]-3’). We also […]
(§5) performed PIFE experiments using a 21 nucleotide DNA primer (5’-Cy3- […]
(§6) -ddC-3’) annealed to the same template. For the single-pair FRET experiments, the same T/P was used, but it lacked 5’-Cy3. For the anisotropy […]
(§7) Fluorescence anisotropy experiments were performed as previously described (5, 6), using a Varian Cary Eclipse fluorescence spectrophotometer. […]
(§8) 5 and 10 nm respectively. […] Anisotropy (r) was calculated as: r= (IVV-G·IVH)/(IVV+2·G·IVH) (1) where IVV is the fluorescence intensity with vertically oriented excitation and emission polarizers and IVH is the fluorescence intensity with a vertically oriented excitation polarizer and a horizontally oriented emission polarizer. The G-factor, defined as G=IHV/IHH, was measured […]
(§9) For all theoretical calculations, r was calculated using the Perrin equation: r=ro/(1+τ/ θ)                 (2) where ro is the fundamental anisotropy, τ  the lifetime and θ  the rotational correlation time (7). […]
(§10) analyzed. […]

In experiment [2] the target is WT RT–T/P complex (Human immunodeficiency virus type 1 group M subtype B, UniProt P04585, C625V/C867S/D837C/T726C). On the set-up: species or system HIV-1. The conditions noted are these: for Eapp (apparent FRET energy transfer, fingers-thumb): mean ± SD. The protocol: Single-molecule total internal reflection fluorescence (TIRF) microscopy was performed as described previously ([19]). For the PIFE assays, Cy3-labeled T/P molecules were surface-tethered to a polyethylene glycol (PEG) treated flow cell via a biotin:streptavidin:biotin-PEG linkage. The concentrations of T/P were typically 20 pM, which provided an optimal surface density of ∼100 molecules per field of view. […] For the FRET assays, unlabeled T/P was surface-tethered by introducing 2 μM T/P into the flow cell to allow formation of a surface-dense layer of T/P substrates. Labeled RT (40 pM) was then introduced into the flow cell and allowed to bind to the T/P. Unbound RT was removed by washing. The PIFE and FRET data were analyzed as described in Supplementary Materials and Methods.
All experiments were performed in 50 mM Tris-HCl, pH 7.5, 25 mM NaCl, and 5 mM MgCl2.
The buffer used in TIRF microscopy experiments also contained 0.1 mg/ml glucose oxidase, 0.02 mg/ml catalase, 0.4% wt/v β-d-glucose, and 2 mM Trolox. Unless otherwise indicated, the TTP, EFV and NVP concentrations were held at 50 μM, 500 nM and 1 μM, respectively, […]
Unlabeled T/P was surface tethered by introducing 2 µM T/P into the flow cell to allow formation of a surface-dense layer of T/P substrates, which promoted observation of RT-T/P complexes. 40 pM of labeled RT was then introduced into the flow cell and allowed to bind to the T/P. Unbound RT was removed by extensive washing. Low concentrations of RT followed by a wash step eliminated excess background noise and/or saturation of the EMCCD. Based on the relative distribution of donor and acceptor intensities observed in the TIRFM fields of view, […]
analyzed. Eapp was calculated using the equation: […]
where ID and IA denote background-corrected donor and acceptor intensities, respectively.
RT. Eapp histograms were subsequently constructed by collecting the pre-photobleach regions of all traces visibly resulting in donor and acceptor photobleaching, binned into 25 bins, and then fit with single Gaussian functions (see Supplementary Figure 3). Thumb/fingers distances reported in Supplementary Table 1 were derived from the fitted Eapp values using the Förster equation: […]
where r is the distance between the dipoles of Cy3 and Cy5, and Ro is the empirically calculated

The next experiment deals with T2, WT HIV-1 RT (Human immunodeficiency virus type 1 group M subtype B, UniProt P04585).
T2 construct: asymmetric heterodimer composed of a 66-kDa (p66) subunit and a p66-derived 51-kDa (p51) subunit; made in house
Put plainly: biochemical. The settings on record: mean ± SD, at least four experiments, read-out: IC50, inhibition of RT RNA-dependent DNA polymerase activity. As for the experimental part:
(§11) The RNA- and DNA-dependent DNA polymerase activities of the purified and labeled RTs were assessed as described previously ([14]).

The target of the next experiment is T3, K101R/E138D HIV-1 RT (Human immunodeficiency virus type 1 group M subtype B, UniProt P04585, E725D/K688R).
T3 construct: asymmetric heterodimer composed of a 66-kDa (p66) subunit and a p66-derived 51-kDa (p51) subunit; made in house
Description: Inhibition of RT RNA-dependent DNA polymerase activity, K101R/E138D RT. Format: biochemical. The protocol:
as §11

Another experiment has as its target T4, E138D HIV-1 RT (Human immunodeficiency virus type 1 group M subtype B, UniProt P04585, E725D).
T4 construct: asymmetric heterodimer composed of a 66-kDa (p66) subunit and a p66-derived 51-kDa (p51) subunit; made in house
Put plainly: Inhibition of RT RNA-dependent DNA polymerase activity, E138D RT. Format: biochemical. The protocol: as §11

Experiment [3] addresses T5, WT RT–T/P complex (Human immunodeficiency virus type 1 group M subtype B, UniProt P04585).
T5 construct: asymmetric heterodimer composed of a 66-kDa (p66) subunit and a p66-derived 51-kDa (p51) subunit; made in house
Description: biochemical. Also noted: species or system HIV-1. The conditions noted are these: fluorescence anisotropy, 5 nM T/P, read-out: Kd, NNRTI binding to the RT–T/P complex. The protocol: as §2, §3, §4, §5, §6, §7, §8, §9, §10
For orientation: Polarisation of emitted light reports the rotation of a fluorescent probe.

A further experiment has as its target T6, K101R HIV-1 RT (Human immunodeficiency virus type 1 group M subtype B, UniProt P04585, K688R).
T6 construct: asymmetric heterodimer composed of a 66-kDa (p66) subunit and a p66-derived 51-kDa (p51) subunit; made in house
Put plainly: Inhibition of RT RNA-dependent DNA polymerase activity, K101R RT. The format is biochemical. The protocol:
as §11

The target in experiment [4] is T1, K103N RT–T/P complex. Description: dTTP binding to RT-T/P complex by fluorescence anisotropy, K103N. Also noted: species or system HIV-1. The settings on record: presence vs absence of EFV. The protocol:
as §2, §3, §4, §5
-ddC-3’) annealed to the same template. For the single-pair FRET experiments, the same T/P was used, but it lacked 5’-Cy3. For the anisotropy experiments we used a 19 nt DNA primer (5’-Fluorescein-dT-[…]- […]
Fluorescence anisotropy experiments were performed as previously described (5, 6), using a Varian Cary Eclipse fluorescence spectrophotometer. […] Anisotropy (r) was calculated as: r= (IVV-G·IVH)/(IVV+2·G·IVH) (1) where IVV is the fluorescence intensity with vertically oriented excitation and emission polarizers and IVH is the fluorescence intensity with a vertically oriented excitation polarizer and a horizontally oriented emission polarizer. The G-factor, defined as G=IHV/IHH, was measured before each experiment to ensure a value of ~ 1.65. […]
For fluorescein, empirically determined values of ro = […] and τ = 4.1 ns were used (8, 9). θ was calculated using the equation: […]
as §10

Setting [5] is: Human immunodeficiency virus 1, K103N virus, head: P4/R5 cells, footnote: TZM-bl cells, mean ± SD, read-out: EC50, inhibition of HIV-1 replication.

Usually EC50 stands for the midpoint of the concentration-response curve. What is called IC50 is the concentration at which inhibition is half-maximal.

“And” between values parts separate entries of the source, which are not always exact repeats. Equal values may be shown once. Read-outs that look alike come from different tables or passages of the source. A value given as a limit tells only on which side of the number the result lay.

As for `O=C1Nc2ccc(Cl)cc2[C@@](C#CC2CC2)(C(F)(F)F)O1` [Efavirenz, efavirenz], the EC50 was determined as 64 ± 18.7 nM in the experiment on K103N HIV-1 (Human immunodeficiency virus 1, read-out: EC50, inhibition of HIV-1 replication); 15.9 ± 2.4 nM in the experiment on K101R/E138D/K103N HIV-1; 1.3 ± 0.2 nM with WT HIV-1; 0.2 nM in the experiment on K101R/E138D HIV-1 (K101R/E138D virus). The “Increase of susceptibility (as measured by IC50 and EC50) by the E138D/K101R mutation” value in the experiment on K101R/E138D HIV-1 (E138D/K101R vs WT) is listed as “up to 7 fold”.
On to `Cc1ccnc2c1NC(=O)c1cccnc1N2C1CC1` [Nevirapine, nevirapine], for which the EC50 in the experiment on K103N HIV-1 (setting [5]) was over 200 nM; in the experiment with K101R/E138D/K103N HIV-1, over 200 nM; in the experiment with WT HIV-1, 24.6 ± 5.9 nM; with K101R/E138D HIV-1 (K101R/E138D virus) it was 21.6 ± 16.8 nM. Also, on K103N RT–T/P complex [1], the “Decrease of binding affinity by the K103N substitution” value is listed as about 10 fold. Also, the “Eapp (apparent FRET energy transfer, fingers-thumb)” value at WT RT–T/P complex [2] (WT RT-T/P plus NNRTI (EFV 500 nM, NVP 1 μM), centre of Gaussian fit, listed as NVP) is 0.68 ± 0.18 and 0.68; on WT RT–T/P complex [2] (WT RT-T/P-dNTP plus NNRTI), 0.72 ± 0.14. The “Average opening of the fingers and thumb” value on WT RT–T/P complex [2] (WT RT–T/P complex, NNRTI vs no inhibitor) was determined as 2.0 Å. In addition, the “Effect on fingers/thumb FRET of the ternary complex” value on WT RT–T/P complex [2] (WT RT–T/P–dNTP complex, NNRTI infused) is “did not affect the FRET histogram”.
With `Cc1cc(/C=C/C#N)cc(C)c1Nc1ccnc(Nc2ccc(C#N)cc2)n1` [Rilpivirine, rilpivirine], the EC50 in the experiment with K103N HIV-1 (setting [5]) is 0.4 ± 0.1 nM; with K101R/E138D/K103N HIV-1, 0.12 ± 0.03 nM; in the experiment on WT HIV-1, 0.37 ± 0.06 nM; in the experiment on K101R/E138D HIV-1 (K101R/E138D virus) it was 0.06 ± 0.01 nM. Moreover, the “Fold-R (EC50 mutant/EC50 WT)” value in the experiment with K103N HIV-1 (K103N virus) is 1.1; in the experiment on K101R/E138D/K103N HIV-1 it was 0.3; in the experiment with K101R/E138D HIV-1 (K101R/E138D virus), 0.2. Moreover, the IC50 at WT HIV-1 RT amounted to 22.5 ± 2.2 nM; at K101R/E138D HIV-1 RT (mean ± SD), 11.2 ± 0.8 nM; at E138D HIV-1 RT (mean ± SD), 8.3 ± 1.2 nM; against K101R HIV-1 RT (mean ± SD), 15.5 ± 7.6 nM. In addition, the “Fold-R (IC50 mutant/IC50 WT)” value at K101R/E138D HIV-1 RT was found to be 0.5; on E138D HIV-1 RT, 0.4; on K101R HIV-1 RT, 0.7. The “Effect of the K103N substitution on NNRTI binding affinity” value at K103N RT–T/P complex [1] is recorded as “did not decrease the binding affinity”. The Kd on WT RT–T/P complex [3] amounted to 82.5 nM.
On to `Cc1cn([C@H]2C[C@H](O)[C@@H](COP(=O)(O)OP(=O)(O)OP(=O)(O)O)O2)c(=O)[nH]c1=O` [dTTP], for which the “Increase of Kd for dTTP binding in the presence of inhibitor” value on K103N RT–T/P complex [4] came to 3 fold.
